Experimental data reported in patent publication EP2951180B1, “2,6,7,8 SUBSTITUTED PURINES AS HDM2 INHIBITORS” (Merck Sharp & Dohme Corp., priority 2013, dated 2014).

Target: T1, HDM2 (Homo sapiens, UniProt Q00987)
T1 construct: Thioredoxin (N); made in house; host or cells: E. coli strain BL21(DE3)Rosetta
Test: HDM2 FRET assay (inhibition of binding of FITC labeled p53-pocket peptide to HDM2)
Conditions: Table 22; read-out: FRET IC50
Summary of the method: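 Final: 0.5 nM His-HDM2, 3 nM FITC peptide, 0.25 nM Tb anti-His Ab; PBS, 0.01% BSA, 0.01% Tween-20; 0.1% DMSO.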

T1 sequence (Q00987 17-125): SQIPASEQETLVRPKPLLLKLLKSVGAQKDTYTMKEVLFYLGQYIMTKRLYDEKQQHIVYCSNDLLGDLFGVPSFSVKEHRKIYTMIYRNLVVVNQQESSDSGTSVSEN

| SMILES | IC50 |
| --- | --- |
| C[C@@H](Nc1nc(-c2noc(=O)[nH]2)nc2nc(C3(c4ccccc4F)CC3)n(C[C@H]3CC[C@H](C)CC3)c12)C1CCC1 [Example 22.5, 3-(6-{[(1R)-1-cyclobutylethyl]amino}-8-[1-(2-fluorophenyl)cyclopropyl]-7-[(trans-4-methylcyclohexyl)methyl]-7H-purin-2-yl)-1,2,4-oxadiazol-5(4H)-one] | 3.57 nM |
| C[C@@H](Nc1nc(-c2noc(=O)[nH]2)nc2nc(C3(c4ccccn4)CC3)n(C[C@H]3CC[C@H](C)CC3)c12)C1CCC1 [Example 22.10, 3-[6-{[(1R)-1-cyclobutylethyl]amino}-7-[(trans-4-methylcyclohexyl)methyl]-8-(1-pyridin-2-ylcyclopropyl)-7H-purin-2-yl]-1,2,4-oxadiazol-5(4H)-one] | 6.29 nM |
| C=C(c1nc2nc(-c3noc(=O)[nH]3)nc(N[C@H](C)C3CCC3)c2n1C[C@H]1CC[C@H](C)CC1)C(C)(C)C [Example 22.11, 3-(6-{[(1R)-1-cyclobutylethyl]amino}-8-(2,2-dimethyl-1-methylidenepropyl)-7-[(trans-4-methylcyclohexyl)methyl]-7H-purin-2-yl)-1,2,4-oxadiazol-5(4H)-one] | 5.73 nM |
| C[C@@H](Nc1nc(-c2noc(=O)[nH]2)nc2nc(CC(C)(C)O)n(C[C@H]3CC[C@H](C)CC3)c12)C1CCC1 [Example 22.16, 3-(6-{[(1R)-1-cyclobutylethyl]amino}-8-(2-hydroxy-2-methylpropyl)-7-[(trans-4-methylcyclohexyl)methyl]-7H-purin-2-yl)-1,2,4-oxadiazol-5(4H)-one] | 55.6 nM |
| C[C@@H](Nc1nc(-c2noc(=O)[nH]2)nc2nc(C(=O)c3ccccc3)n(C[C@H]3CC[C@H](C)CC3)c12)C1CCC1 [Example 22.21, 3-[6-{[(1R)-1-cyclobutylethyl]amino}-7-[(trans-4-methylcyclohexyl)methyl]-8-(phenylcarbonyl)-7H-purin-2-yl]-1,2,4-oxadiazol-5(4H)-one] | 1 nM |
| C[C@@H](Nc1nc(-c2n[nH]c(=O)o2)nc2nc(C(=O)c3ccccc3)n(C[C@H]3CC[C@H](C)CC3)c12)C1CCC1 [Example 22.22, 5-[6-{[(1R)-1-cyclobutylethyl]amino}-7-[(trans-4-methylcyclohexyl)methyl]-8-(phenylcarbonyl)-7H-purin-2-yl]-1,3,4-oxadiazol-2(3H)-one] | 3.93 nM |
| C[C@@H](Nc1nc(-c2noc(=O)[nH]2)nc2nc(C(O)c3ccccc3)n(C[C@H]3CC[C@H](C)CC3)c12)C1CCC1 (stereo partly drawn) [Example 22.29, 3-(6-{[(1R)-1-cyclobutylethyl]amino}-8-[hydroxy(phenyl)methyl]-7-[(trans-4-methylcyclohexyl)methyl] -7H-purin-2-yl)-1,2,4-oxadiazol-5(4H)-one] | 1.66 nM |
| C[C@@H](Nc1nc(-c2noc(=O)[nH]2)nc2nc(C3(c4ccc(F)cc4)CC3)n(C[C@H]3CC[C@H](C)CC3)c12)C1CCC1 [Example 22.30, 3-(6-{[(1R)-1-cyclobutylethyl]amino}-8-[1-(4-fluorophenyl)cyclopropyl] -7-[(trans-4-methylcyclohexyl)methyl] -7H-purin-2-yl)-1,2,4-oxadiazol-5(4H)-one] | 10.1 nM |
| C[C@@H](Nc1nc(-c2noc(=O)[nH]2)nc2nc(C(=O)C3CCOCC3)n(C[C@H]3CC[C@H](C)CC3)c12)C1CCC1 [Example 22.31, 3-[6-{[(1R)-1-cyclobutylethyl]amino}-7-[(trans-4-methylcyclohexyl)methyl] -8-(tetrahydro-2H-pyran-4-ylcarbonyl)-7H-purin-2-yl]-1,2,4-oxadiazol-5(4H)-one] | 6.45 nM |
| CC(=O)c1nc2nc(-c3noc(=O)[nH]3)nc(N[C@H](C)C3CCC3)c2n1C[C@H]1CC[C@H](C)CC1 [Example 22.32, 3-(8-acetyl-6-{[(1R)-1-cyclobutylethyl]amino}-7-[(trans-4-methylcyclohexyl)methyl] -7H-purin-2-yl)-1,2,4-oxadiazol-5(2H)-one] | 25.3 nM |
| C=C(c1nc2nc(-c3noc(=O)n3C)nc(N[C@H](C)C3CCC3)c2n1C[C@H]1CC[C@H](C)CC1)C(C)(C)C [Example 22.33, 3-(6-{[(1R)-1-cyclobutylethyl]amino}-8-(2,2-dimethyl-1-methylidenepropyl)-7-[(trans-4-methylcyclohexyl)methyl] -7H-purin-2-yl)-4-methyl-1,2,4-oxadiazol-5(4H)-one] | 291 nM |
| C[C@@H](Nc1nc(-c2noc(=O)[nH]2)nc2nc(C(O)C3CCOCC3)n(C[C@H]3CC[C@H](C)CC3)c12)C1CCC1 (stereo partly drawn) [Example 22.34, 3-(6-{[(1R)-1-cyclobutylethyl]amino}-8-[hydroxy(tetrahydro-2H-pyran-4-yl)methyl]-7-[(trans-4-methylcyclohexyl)methyl] -7H-purin-2-yl)-1,2,4-oxadiazol-5(4H)-one] | 24.6 nM |
| C[C@@H](Nc1nc(-c2noc(=O)[nH]2)nc2nc(C(C)(O)c3ccncc3)n(C[C@H]3CC[C@H](C)CC3)c12)C1CCC1 (stereo partly drawn) [Example 22.36, 3-(6-{[(1R)-1-cyclobutylethyl]amino}-8-(1-hydroxy-1-pyridin-4-ylethyl)-7-[(trans-4-methylcyclohexyl)methyl] -7H-purin-2-yl)-1,2,4-oxadiazol-5(4H)-one] | 13.6 nM |
| C[C@@H](Nc1nc(-c2noc(=O)[nH]2)nc2nc(C(C)(O)C3CCOCC3)n(C[C@H]3CC[C@H](C)CC3)c12)C1CCC1 (stereo partly drawn) [Example 22.38, 3-(6-{[(1R)-1-cyclobutylethyl]amino}-8-[1-hydroxy-1-(tetrahydro-2H-pyran-4-yl)ethyl]-7-[(trans-4-methylcyclohexyl)methyl] -7H-purin-2-yl)-1,2,4-oxadiazol-5(4H)-one] | 4.76 nM |
| C[C@@H](Nc1nc(-c2noc(=O)[nH]2)nc2nc(C3(c4cccnc4)CC3)n(C[C@H]3CC[C@H](C)CC3)c12)C1CCC1 [Example 22.39, 3-[6-{[(1R)-1-cyclobutylethyl]amino}-7-[(trans-4-methylcyclohexyl)methyl] -8-(1-pyridin-3-ylcyclopropyl)-7H-purin-2-yl]-1,2,4-oxadiazol-5(2H)-one] | 13.9 nM |
| C[C@@H](Nc1nc(-c2noc(=O)[nH]2)nc2nc(C(C)(O)c3cccnc3)n(C[C@H]3CC[C@H](C)CC3)c12)C1CCC1 (stereo partly drawn) [Example 22.40, 3-(6-{[(1R)-1-cyclobutylethyl]amino}-8-(1-hydroxy-1-pyridin-3-ylethyl)-7-[(trans-4-methylcyclohexyl)methyl] -7H-purin-2-yl)-1,2,4-oxadiazol-5(2H)-one] | 41.6 nM |
| C[C@@H](Nc1nc(-c2noc(=O)[nH]2)nc2nc(C(O)C3CCCC3)n(C[C@H]3CC[C@H](C)CC3)c12)C1CCC1 (stereo partly drawn) [Example 22.41, 3-(6-{[(1R)-1-cyclobutylethyl]amino}-8-[cyclopentyl(hydroxy)methyl]-7-[(trans-4-methylcyclohexyl)methyl] -7H-purin-2-yl)-1,2,4-oxadiazol-5(2H)-one] | 1.21 nM |
| C=C(c1nc2nc(-c3noc(=O)[nH]3)nc(N[C@H](C)C3CCC3)c2n1C[C@H]1CC[C@H](C)CC1)C1CCOCC1 [Example 22.42, 3-(6-{[(1R)-1-cyclobutylethyl]amino}-7-[(trans-4-methylcyclohexyl)methyl] -8-[1-(tetrahydro-2H-pyran-4-yl)ethenyl]-7H-purin-2-yl)-1,2,4-oxadiazol-5(4H)-one] | 5.07 nM |
| C[C@@H](Nc1nc(-c2noc(=O)[nH]2)nc2nc(C3(O)CCCCC3)n(C[C@H]3CC[C@H](C)CC3)c12)C1CCC1 [Example 22.43, 3-(6-{[(1R)-1-cyclobutylethyl]amino}-8-(1-hydroxycyclohexyl)-7-[(trans-4-methylcyclohexyl)methyl] -7H-purin-2-yl)-1,2,4-oxadiazol-5(4H)-one] | 13.1 nM |
| C[C@@H](Nc1nc(-c2noc(=O)[nH]2)nc2nc(C(C)(C)O)n(C[C@H]3CC[C@H](C)CC3)c12)C1CCC1 [Example 22.44, 3-(6-{[(1R)-1-cyclobutylethyl]amino}-8-(1-hydroxy-1-methylethyl)-7-[(trans-4-methylcyclohexyl)methyl] -7H-purin-2-yl)-1,2,4-oxadiazol-5(4H)-one] | 20.5 nM |
| CC(C)C(O)c1nc2nc(-c3noc(=O)[nH]3)nc(N[C@H](C)C3CCC3)c2n1C[C@H]1CC[C@H](C)CC1 (stereo partly drawn) [Example 22.45, 3-(6-{[(1R)-1-cyclobutylethyl]amino}-8-(1-hydroxy-2-methylpropyl)-7-[(trans-4-methylcyclohexyl)methyl] -7H-purin-2-yl)-1,2,4-oxadiazol-5(4H)-one] | 3.66 nM |
| C[C@@H](Nc1nc(-c2noc(=O)[nH]2)nc2nc(C3CCCCC3O)n(C[C@H]3CC[C@H](C)CC3)c12)C1CCC1 (stereo partly drawn) [Example 22.46, 3-(6-{[(1R)-1-cyclobutylethyl]amino}-8-(2-hydroxycyclohexyl)-7-[(trans-4-methylcyclohexyl)methyl] -7H-purin-2-yl)-1,2,4-oxadiazol-5(4H)-one] | 445 nM |
| C[C@@H](Nc1nc(-c2noc(=O)[nH]2)nc2nc(C(O)C3CCCC3)n(C[C@H]3CC[C@H](C)CC3)c12)C1CCC1 (stereo partly drawn) [Example 22.47, 3-(6-{[(1R)-1-cyclobutylethyl]amino}-8-[cyclopentyl(hydroxy)methyl]-7-[(trans-4-methylcyclohexyl)methyl] -7H-purin-2-yl)-1,2,4-oxadiazol-5(4H)-one] | 5.04 nM |
| CC(C)C(O)c1nc2nc(-c3noc(=O)[nH]3)nc(N[C@H](C)C3CCC3)c2n1C[C@H]1CC[C@H](C)CC1 (stereo partly drawn) [Example 22.48, 3-(6-{[(1R)-1-cyclobutylethyl]amino}-8-(1-hydroxy-2-methylpropyl)-7-[(trans-4-methylcyclohexyl)methyl] -7H-purin-2-yl)-1,2,4-oxadiazol-5(4H)-one] | 30.2 nM |
| C[C@@H](Nc1nc(-c2noc(=O)[nH]2)nc2nc(C3(c4cccc(F)c4)CC3)n(C[C@H]3CC[C@H](C)CC3)c12)C1CCC1 [Example 22.49, 3-(6-{[(1R)-1-cyclobutylethyl]amino}-8-[1-(3-fluorophenyl)cyclopropyl] -7-[(trans-4-methylcyclohexyl)methyl] -7H-purin-2-yl)-1,2,4-oxadiazol-5(4H)-one] | 16.9 nM |
